Reference: US20240317777A1, “NOVEL MACROCYCLIC AMINOPYRAZOLE COMPOUNDS AS CDK2 INHIBITORS” (Accutar Biotechnology Inc., priority 2023, published 2024)
Where two headings read alike, the source gives them in different places.

Experiments:
[1] = the molecule shown is the open-chain precursor, other bond, 18-membered ring, DIEA, THF
[2] = the molecule shown is the open-chain precursor, other bond
[3] = other bond
[4] = the molecule shown is the open-chain precursor; other bond; 18-membered ring; DIEA; THF; 1.83 mM; 80.0 °C

C[C@H](N)CCO[C@@H](C)c1cc(Nc2cc([C@H]3CC[C@@H](OC(=O)Oc4ccc([N+](=O)[O-])cc4)C3)nn2C(C)(C)C)ccn1
ring closure, crude yield ([1]; 0.55 mM, 25.0 °C): 86.5%

CC(OCCCN)c1cc(Nc2cc([C@H]3CC[C@@H](OC(=O)Oc4ccc([N+](=O)[O-])cc4)C3)nn2C(C)(C)C)ccn1 (some centres unmarked)
ring closure, crude yield ([1]; 6.34 mM, 100.0 °C): 87.5%

CC(C)(C)n1nc([C@H]2C[C@@H](F)[C@@H](OC(=O)Oc3ccc([N+](=O)[O-])cc3)C2)cc1Nc1ccnc(OCC2CC(N)C2)c1 (some centres unmarked)
ring closure, isolated yield ([2]; 18-membered ring, DIEA, THF, 1.7 mM, 60.0 °C): 37%

C[C@H](N)C(F)CCOc1cc(Nc2cc([C@H]3CC[C@@H](OC(=O)Oc4ccc([N+](=O)[O-])cc4)C3)nn2C(C)(C)C)ccn1 (some centres unmarked)
ring closure, isolated yield ([2]; 18-membered ring, DIEA, DMSO, 1.71 mM, 100.0 °C): 97%

CC(C)(C)n1nc([C@H]2CC[C@@H](OC(=O)Oc3ccc([N+](=O)[O-])cc3)C2)cc1Nc1ccnc(OCC2CC(N)C2)c1 (some centres unmarked)
ring closure, crude yield ([1]; 1.21 mM, 70.0 °C): 96.7%

C[C@H](N)CCCOc1cc(Nc2cc([C@H]3CC[C@@H](OC(=O)Oc4ccc([N+](=O)[O-])cc4)C3)nn2C(C)(C)C)ccn1
ring closure, isolated yield ([2]; 18-membered ring, DIEA, THF, 3.53 mM, 50.0 °C): 84.8%

C[C@H](N)CCCOc1nccc(Nc2cc([C@H]3CC[C@@H](OC(=O)Oc4ccc([N+](=O)[O-])cc4)C3)nn2C(C)(C)C)n1
ring closure, isolated yield ([2]; 18-membered ring, DIEA, DMSO, 1.79 mM, 80.0 °C): 93%

C[C@H](N)CCCOc1cc(Nc2cc([C@H]3CC[C@@H](OC(=O)Oc4ccc([N+](=O)[O-])cc4)C3)nn2C(C)(C)C)c(F)cn1
ring closure, crude yield ([1]; 1.71 mM, 25.0 °C): 99.9%

CC(C)(C)n1nc2cc1Nc1cc(nc(C(F)F)c1)CCCCCNC(=O)O[C@@H]1CC[C@H]2C1
ring closure, yield of all isomers ([3]; from CC(C)(C)n1nc([C@H]2CC[C@@H](OC(=O)Oc3ccc([N+](=O)[O-])cc3)C2)cc1Nc1cc(CCCCCN)nc(C(F)F)c1, DIPEA, THF, 3.27 mM, 30.0 °C, 12.0 h): 44.1%

CC(C)(C)n1nc([C@H]2CC[C@@H](OC(=O)Oc3ccc([N+](=O)[O-])cc3)C2)cc1Nc1cncc(OCC2CC(N)C2)n1 (some centres unmarked)
ring closure, isolated yield ([2]; 18-membered ring, DIEA, DMSO, 2.3 mM, 100.0 °C): 38%

CC(C)(C)n1nc2cc1Nc1ccnc(c1)OC[C@H]1C[C@@H](C1)NC(=O)O[C@H]1C[C@@H]2C[C@H]1F
ring closure, yield of all isomers ([3]; from CC(C)(C)n1nc([C@H]2C[C@@H](F)[C@@H](OC(=O)Oc3ccc([N+](=O)[O-])cc3)C2)cc1Nc1ccnc(OC[C@H]2C[C@H](N)C2)c1, DIEA, THF, 1.7 mM, 60.0 °C, 12.0 h): 37%

CC(C)(C)n1nc([C@H]2CC[C@@H](OC(=O)Oc3ccc([N+](=O)[O-])cc3)C2)cc1Nc1cc(OCCCCN)nc(C(F)F)c1
ring closure, isolated yield ([2]; 18-membered ring, DIEA, THF, 1.11 mM, 25.0 °C): 65%

C[C@H]1CCCC(F)(F)c2cc(ccn2)Nc2cc(nn2C(C)(C)C)[C@H]2CC[C@H](C2)OC(=O)N1
ring closure, yield of all isomers ([3]; from C[C@H](N)CCCC(F)(F)c1cc(Nc2cc([C@H]3CC[C@@H](OC(=O)Oc4ccc([N+](=O)[O-])cc4)C3)nn2C(C)(C)C)ccn1, DIEA, THF, 1.33 mM, 25.0 °C, 3.0 h): 99.3%

C[C@@H](N)CCCCc1cc(Nc2cc([C@H]3CC[C@@H](OC(=O)Oc4ccc([N+](=O)[O-])cc4)C3)nn2C(C)(C)C)ccn1
ring closure, isolated yield ([2]; 18-membered ring, DIEA, THF, 1.42 mM, 100.0 °C): 99.5%

C[C@H]1CC/C=C/c2cc(ccn2)Nc2cc(nn2C(C)(C)C)[C@H]2CC[C@H](C2)OC(=O)N1
ring closure, yield of all isomers ([3]; from C[C@H](N)CC/C=C/c1cc(Nc2cc([C@H]3CC[C@@H](OC(=O)Oc4ccc([N+](=O)[O-])cc4)C3)nn2C(C)(C)C)ccn1, DIEA, THF, 1.6 mM, 60.0 °C, 2.0 h): 93.9%

CC(N)CCCOc1cc(Nc2cc([C@H]3CC[C@@H](OC(=O)Oc4ccc([N+](=O)[O-])cc4)C3)nn2C(C)(C)C)ccn1 (some centres unmarked)
ring closure, isolated yield ([2]; 18-membered ring, DIEA, THF, 2.06 mM, 30.0 °C): 98.5%

C[C@@H]1NC(=O)O[C@H]2C[C@H](C[C@H]2F)c2cc(n(C(C)(C)C)n2)Nc2ccnc(c2)OCCC1(F)F
ring closure, yield of all isomers ([3]; from C[C@H](N)C(F)(F)CCOc1cc(Nc2cc([C@H]3C[C@@H](F)[C@@H](OC(=O)Oc4ccc([N+](=O)[O-])cc4)C3)nn2C(C)(C)C)ccn1, DIEA, DMSO, 3.13 mM, 100.0 °C, 12.0 h): 88%

CC(C)(C)n1nc2cc1Nc1cc(nc(C(F)F)c1)OCCCCNC(=O)O[C@@H]1CC[C@H]2C1
ring closure, yield of all isomers ([3]; from CC(C)(C)n1nc([C@H]2CC[C@@H](OC(=O)Oc3ccc([N+](=O)[O-])cc3)C2)cc1Nc1cc(OCCCCN)nc(C(F)F)c1, DIEA, THF, 1.11 mM, 25.0 °C, 12.0 h): 65%

CC(C)(C)n1nc2cc1Nc1cncc(c1)OCCCCNC(=O)O[C@@H]1CC[C@H]2C1
ring closure, yield of all isomers ([3]; from CC(C)(C)n1nc([C@H]2CC[C@@H](OC(=O)Oc3ccc([N+](=O)[O-])cc3)C2)cc1Nc1cncc(OCCCCN)c1, DIPEA, THF, 2.01 mM, 25.0 °C, 12.0 h, 2 steps): 49.3%

C[C@H]1CCCCc2cc(ccn2)Nc2cc(nn2C(C)(C)C)[C@H]2CC[C@H](C2)OC(=O)N1
ring closure, yield of all isomers ([3]; from C[C@H](N)CCCCc1cc(Nc2cc([C@H]3CC[C@@H](OC(=O)Oc4ccc([N+](=O)[O-])cc4)C3)nn2C(C)(C)C)ccn1, DIEA, THF, 0.92 mM, 20.0 °C, 4.0 h): 91.9%

C[C@@H](N)CC/C=C/c1cc(Nc2cc([C@H]3CC[C@@H](OC(=O)Oc4ccc([N+](=O)[O-])cc4)C3)nn2C(C)(C)C)ccn1
ring closure, isolated yield ([2]; 18-membered ring, DIEA, THF, 1.46 mM, 70.0 °C): 98.6%

C[C@H](N)CCCOc1cc(Nc2cc([C@H]3CC[C@@H](OC(=O)Oc4ccc([N+](=O)[O-])cc4)C3)nn2C(C)(C)C)cc(F)n1
ring closure, crude yield ([1]; 1.71 mM, 25.0 °C): 97.8%

CC(C)(C)n1nc2cc1Nc1cncc(n1)OC[C@H]1C[C@@H](C1)NC(=O)O[C@@H]1CC[C@H]2C1
ring closure, yield of all isomers ([3]; from CC(C)(C)n1nc([C@H]2CC[C@@H](OC(=O)Oc3ccc([N+](=O)[O-])cc3)C2)cc1Nc1cncc(OC[C@H]2C[C@H](N)C2)n1, DIEA, DMSO, 2.3 mM, 100.0 °C, 12.0 h): 38%

C[C@H](N)C(F)(F)CCOc1cc(Nc2cc([C@H]3C[C@@H](F)[C@@H](OC(=O)Oc4ccc([N+](=O)[O-])cc4)C3)nn2C(C)(C)C)ccn1
ring closure, isolated yield ([2]; 18-membered ring, DIEA, DMSO, 3.13 mM, 100.0 °C): 88%

CC1(C)CCCOc2cc(ccn2)Nc2cc(nn2C(C)(C)C)[C@H]2CC[C@H](C2)OC(=O)N1
ring closure, yield of all isomers ([3]; from CC(C)(N)CCCOc1cc(Nc2cc([C@H]3CC[C@@H](OC(=O)Oc4ccc([N+](=O)[O-])cc4)C3)nn2C(C)(C)C)ccn1, DIPEA, DMAP, THF, 1.82 mM, 50.0 °C, 39.0 h): 88.8%

C[C@H](N)CCCCc1cc(Nc2cc([C@H]3CC[C@@H](OC(=O)Oc4ccc([N+](=O)[O-])cc4)C3)nn2C(C)(C)C)ccn1
ring closure, crude yield ([1]; 0.92 mM, 20.0 °C): 91.9%

CC(CC12CC(N)(C1)C2)Oc1cc(Nc2cc([C@H]3CC[C@@H](OC(=O)Oc4ccc([N+](=O)[O-])cc4)C3)nn2C(C)(C)C)cc(C(F)F)n1 (some centres unmarked)
ring closure, isolated yield ([2]; 19-membered ring, DIEA, THF, 9.15 mM, 80.0 °C): 84.7%

CC(C)(C)n1nc([C@H]2CC[C@@H](OC(=O)Oc3ccc([N+](=O)[O-])cc3)C2)cc1Nc1cncc(OCCCCN)c1
ring closure, isolated yield ([2]; 18-membered ring, DIEA, THF, 2.01 mM, 25.0 °C): 49.3%

CC(C)(N)CCCOc1cc(Nc2cc([C@H]3CC[C@@H](OC(=O)Oc4ccc([N+](=O)[O-])cc4)C3)nn2C(C)(C)C)ccn1
ring closure, isolated yield ([2]; 18-membered ring, DIEA/DMAP, THF, 1.81 mM, 50.0 °C): 88.8%

CC1CCCOc2cc(ccn2)Nc2cc(nn2C(C)(C)C)[C@H]2CC[C@H](C2)OC(=O)N1 (some centres unmarked)
ring closure, yield of all isomers ([3]; from CC(N)CCCOc1cc(Nc2cc([C@H]3CC[C@@H](OC(=O)Oc4ccc([N+](=O)[O-])cc4)C3)nn2C(C)(C)C)ccn1, DIPEA, THF, 2.06 mM, 30.0 °C, 24.0 h): 98.5%

C[C@H](N)CC(F)(F)COc1cc(Nc2cc([C@H]3CC[C@@H](OC(=O)Oc4ccc([N+](=O)[O-])cc4)C3)nn2C(C)(C)C)ccn1
ring closure, yield after HPLC [4]: 66.2%

CC(C)(C)n1nc([C@H]2CC[C@@H](OC(=O)Oc3ccc([N+](=O)[O-])cc3)C2)cc1Nc1cc(CCCCCN)nc(C(F)F)c1
ring closure, isolated yield ([2]; 18-membered ring, DIEA, THF, 3.27 mM, 30.0 °C): 44.1%
